This experiment deals with T1, human vasopressin V2 receptor subtype (Homo sapiens, UniProt P30518).
T1 construct: host or cells: CHO cells (pZeoSV vector)
The experiment is described as follows: Vasopressin binding in Chinese Hamster Ovary cell membranes expressing human vasopressin V2 subtype receptors. To be noted: 100 nM, CHO cell membranes, [3H]arginine vasopressin, values without parentheses. In outline: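 Radioligand displacement on membranes from CHO cells stably expressing human V2 receptor, 25 to 50 μg protein/well, in 50 mM Tris-HCl pH 7.4 with MgCl2, BSA and protease inhibitors. [^3H]arginine vasopressin (8 nM working solution) incubated 60 min at room temperature; bound label measured by filtration and scintillation counting.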

T1 sequence (P30518 whole entry): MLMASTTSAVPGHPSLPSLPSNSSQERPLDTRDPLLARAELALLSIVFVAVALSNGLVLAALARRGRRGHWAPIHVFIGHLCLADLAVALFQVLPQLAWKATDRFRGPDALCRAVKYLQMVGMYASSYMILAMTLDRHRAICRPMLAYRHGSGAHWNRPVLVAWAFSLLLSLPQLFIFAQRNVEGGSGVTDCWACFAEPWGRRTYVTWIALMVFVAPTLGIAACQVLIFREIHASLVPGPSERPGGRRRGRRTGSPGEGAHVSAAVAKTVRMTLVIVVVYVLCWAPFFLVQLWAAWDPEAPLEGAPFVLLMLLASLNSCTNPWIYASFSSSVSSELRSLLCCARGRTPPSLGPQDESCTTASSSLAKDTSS

As a reminder, the inhibition is the drop in the measured response relative to a control, in per cent. Take `Cc1cc(C(=O)N2Cc3ccc(C(=O)N4CCN(C(=O)OC(C)(C)C)CC4)n3Cc3ccccc32)ccc1-c1ccccc1C(F)(F)F` [Example 6, 4-[[10,11-Dihydro-10-[[2-methyl-2′-trifluoromethyl[1,1′-biphenyl]-4-yl]carbonyl]-5H-pyrrolo[2,1-c][1,4]benzodiazepin-3-yl]carbonyl]-1-piperazine-carboxylic acid, tert-butyl ester]: the inhibition at 0.1 µM came to 13%.
Take `COc1cccc(-c2cc(OC)c(C(=O)N3Cc4ccc(C(=O)NCCN5CCCCC5)n4Cc4ccccc43)cc2Cl)c1` [Example 156, 10-[(6-Chloro-3,3′-dimethoxy[1,1′-biphenyl]-4-yl)carbonyl]-N-[2-(1-piperidinyl)ethyl]-10,11-dihydro-5H-pyrrolo[2,1-c][1,4]benzodiazepine-3-carboxamide]: the inhibition at 0.1 µM was 12%.
Then `COc1cc(C(=O)N2Cc3ccc(C(=O)NCCN4CCCCC4)n3Cc3ccccc32)ccc1-c1cccc2ccccc12` [Example 157, 10-[3-Methoxy-4-(1-naphthyl)benzoyl]-N-[2-(1-piperidinyl)ethyl]-10,11-dihydro-5H-pyrrolo[2,1-c][1,4]benzodiazepine-3-carboxamide], with 23%; and `COc1ccccc1-c1ccc(C(=O)N2Cc3ccc(C(=O)NCCN4CCCCC4)n3Cc3ccccc32)cc1OC` [Example 158, 10-[(2,2′-Dimethoxy[1,1′-biphenyl]-4-yl)carbonyl]-N-[2-(1-piperidinyl)ethyl]-10,11-dihydro-5H-pyrrolo[2,1-c][1,4]benzodiazepine-3-carboxamide], with 19%; and `COc1cccc(-c2ccc(C(=O)N3Cc4ccc(C(=O)NCCN5CCCCC5)n4Cc4ccccc43)cc2OC)c1` [Example 159, 10-[(2,3′-Dimethoxy[1,1′-biphenyl]-4-yl)carbonyl]-N-[2-(1-piperidinyl)ethyl]-10,11-dihydro-5H-pyrrolo[2,1-c][1,4]benzodiazepine-3-carboxamide], with 16%.
Then `O=C(NCCN1CCCCC1)c1ccc2n1Cc1ccccc1N(C(=O)c1ccc(-c3cccc4ccccc34)cc1Cl)C2` [Example 160, 10-[2-Chloro-4-(1-naphthyl)benzoyl]-N-[2-(1-piperidinyl)ethyl]-10,11-dihydro-5H-pyrrolo[2,1-c][1,4]benzodiazepine-3-carboxamide], with 24%; and `Cc1cc(C(=O)N2Cc3ccc(C(=O)NCCN4CCCCC4)n3Cc3ccccc32)ccc1-c1ccccc1C(F)(F)F` [Example 161, 10-{[2-Methyl-2′-(trifluoromethyl)[1,1′-biphenyl]-4-yl]carbonyl}-N-[2-(1-piperidinyl)ethyl]-10,11-dihydro-5H-pyrrolo[2,1-c][1,4]benzodiazepine-3-carboxamide], with 4%.
With `COc1ccccc1-c1ccc(C(=O)N2Cc3ccc(C(=O)NCCC4CCCN4C)n3Cc3ccccc32)cc1C` (stereo not shown) [Example 162, 10-[(2′-Methoxy-2-methyl[1,1′-biphenyl]-4-yl)carbonyl]-N-[2-(1-methyl-2-pyrrolidinyl)ethyl]-10,11-dihydro-5H-pyrrolo[2,1-c][1,4]benzodiazepine-3-carboxamide], the inhibition at 0.1 µM worked out at 20%.
Consider `Cc1ccccc1-c1ccc(C(=O)N2Cc3ccc(C(=O)NCCC4CCCN4C)n3Cc3ccccc32)cc1C` (stereo not shown) [Example 163, 10-[(2,2′-Dimethyl[1,1′-biphenyl]-4-yl)carbonyl]-N-[2-(1-methyl-2-pyrrolidinyl)ethyl]-10,11-dihydro-5H-pyrrolo[2,1-c][1,4]benzodiazepine-3-carboxamide], for which the inhibition at 0.1 µM was 13%.
`COc1ccccc1-c1ccc(C(=O)N2Cc3ccc(C(=O)NCCC4CCCN4C)n3Cc3ccccc32)cc1` (stereo not shown) [Example 165, 10-[(2′-Methoxy[1,1′-biphenyl]-4-yl)carbonyl]-N-[2-(1-methyl-2-pyrrolidinyl)ethyl]-10,11-dihydro-5H-pyrrolo[2,1-c][1,4]benzodiazepine-3-carboxamide]: the inhibition at 0.1 µM came out at 25%.
Then `Cc1ccccc1-c1ccc(C(=O)N2Cc3ccc(C(=O)NCCC4CCCN4C)n3Cc3ccccc32)cc1` (stereo not shown) [Example 166, 10-[(2′-Methyl[1,1′-biphenyl]-4-yl)carbonyl]-N-[2-(1-methyl-2-pyrrolidinyl)ethyl]-10,11-dihydro-5H-pyrrolo[2,1-c][1,4]benzodiazepine-3-carboxamide], with 3%.
For `COc1cc(C(=O)N2Cc3ccc(C(=O)NCCC4CCCN4C)n3Cc3ccccc32)ccc1-c1ccccc1C` (stereo not shown) [Example 167, 10-[(2-Methoxy-2′-methyl[1,1′-biphenyl]-4-yl)carbonyl]-N-[2-(1-methyl-2-pyrrolidinyl)ethyl]-10,11-dihydro-5H-pyrrolo[2,1-c][1,4]benzodiazepine-3-carboxamide], the inhibition at 0.1 µM stood at 20%.
Then `COc1cc(-c2ccccc2C)c(Cl)cc1C(=O)N1Cc2ccc(C(=O)NCCC3CCCN3C)n2Cc2ccccc21` (stereo not shown) [Example 168, 10-[(6-Chloro-3-methoxy-2′-methyl[1,1′-biphenyl]-4-yl)carbonyl]-N-[2-(1-methyl-2-pyrrolidinyl)ethyl]-10,11-dihydro-5H-pyrrolo[2,1-c][1,4]benzodiazepine-3-carboxamide], with 10%.
Take `COc1cccc(-c2cc(OC)c(C(=O)N3Cc4ccc(C(=O)NCCC5CCCN5C)n4Cc4ccccc43)cc2Cl)c1` (stereo not shown) [Example 169, 10-[(6-Chloro-3,3′-dimethoxy[1,1′-biphenyl]-4-yl)carbonyl]-N-[2-(1-methyl-2-pyrrolidinyl)ethyl]-10,11-dihydro-5H-pyrrolo[2,1-c][1,4]benzodiazepine-3-carboxamide]: the inhibition at 0.1 µM was 5%.
In the case of `COc1cc(C(=O)N2Cc3ccc(C(=O)NCCC4CCCN4C)n3Cc3ccccc32)ccc1-c1cccc2ccccc12` (stereo not shown) [Example 170, 10-[3-Methoxy-4-(1-naphthyl)benzoyl]-N-[2-(1-methyl-2-pyrrolidinyl)ethyl]-10,11-dihydro-5H-pyrrolo[2,1-c][1,4]benzodiazepine-3-carboxamide], the inhibition at 0.1 µM was determined as 27%.
With `COc1ccccc1-c1ccc(C(=O)N2Cc3ccc(C(=O)NCCC4CCCN4C)n3Cc3ccccc32)cc1OC` (stereo not shown) [Example 171, 10-[(2,2′-Dimethoxy[1,1′-biphenyl]-4-yl)carbonyl]-N-[2-(1-methyl-2-pyrrolidinyl)ethyl]-10,11-dihydro-5H-pyrrolo[2,1-c][1,4]benzodiazepine-3-carboxamide], the inhibition at 0.1 µM amounted to 14%.
With `COc1cccc(-c2ccc(C(=O)N3Cc4ccc(C(=O)NCCC5CCCN5C)n4Cc4ccccc43)cc2OC)c1` (stereo not shown) [Example 172, 10-[(2,3′-Dimethoxy[1,1′-biphenyl]-4-yl)carbonyl]-N-[2-(1-methyl-2-pyrrolidinyl)ethyl]-10,11-dihydro-5H-pyrrolo[2,1-c][1,4]benzodiazepine-3-carboxamide], the inhibition at 0.1 µM was 11%.
As for `CN1CCCC1CCNC(=O)c1ccc2n1Cc1ccccc1N(C(=O)c1ccc(-c3cccc4ccccc34)cc1Cl)C2` (stereo not shown) [Example 173, 10-[2-Chloro-4-(1-naphthyl)benzoyl]-N-[2-(1-methyl-2-pyrrolidinyl)ethyl]-10,11-dihydro-5H-pyrrolo[2,1-c][1,4]benzodiazepine-3-carboxamide], the inhibition at 0.1 µM came to 17%.
With `Cc1cc(C(=O)N2Cc3ccc(C(=O)NCCC4CCCN4C)n3Cc3ccccc32)ccc1-c1ccccc1C(F)(F)F` (stereo not shown) [Example 174, N-[2-(1-Methyl-2-pyrrolidinyl)ethyl]-10-{[2-methyl-2′-(trifluoromethyl)[1,1′-biphenyl]-4-yl]carbonyl}-10,11-dihydro-5H-pyrrolo[2,1-c][1,4]benzodiazepine-3-carboxamide], the inhibition at 0.1 µM was found to be 7%.
For `COc1ccccc1-c1ccc(C(=O)N2Cc3ccc(C(=O)N(C)C4CCN(C)CC4)n3Cc3ccccc32)cc1C` [Example 175, 10-[(2′-Methoxy-2-methyl[1,1′-biphenyl]-4-yl)carbonyl]-N-methyl-N-(1-methyl-4-piperidinyl)-10,11-dihydro-5H-pyrrolo[2,1-c][1,4]benzodiazepine-3-carboxamide], the inhibition at 0.1 µM worked out at 17%.
`COc1cccc(-c2ccc(C(=O)N3Cc4ccc(C(=O)N(C)C5CCN(C)CC5)n4Cc4ccccc43)cc2C)c1` [Example 176, 10-[(3′-Methoxy-2-methyl[1,1′-biphenyl]-4-yl)carbonyl]-N-methyl-N-(1-methyl-4-piperidinyl)-10,11-dihydro-5H-pyrrolo[2,1-c][1,4]benzodiazepine-3-carboxamide]: the inhibition at 0.1 µM was determined as 18%.
For the molecule `COc1ccccc1-c1ccc(C(=O)N2Cc3ccc(C(=O)N(C)C4CCN(C)CC4)n3Cc3ccccc32)cc1` [Example 177, 10-[(2′-Methoxy[1,1′-biphenyl]-4-yl)carbonyl]-N-methyl-N-(1-methyl-4-piperidinyl)-10,11-dihydro-5H-pyrrolo[2,1-c][1,4]benzodiazepine-3-carboxamide], the inhibition at 0.1 µM stood at 18%.
On to `Cc1ccccc1-c1ccc(C(=O)N2Cc3ccc(C(=O)N(C)C4CCN(C)CC4)n3Cc3ccccc32)cc1` [Example 178, N-Methyl-10-[(2′-methyl[1,1′-biphenyl]-4-yl)carbonyl]-N-(1-methyl-4-piperidinyl)-10,11-dihydro-5H-pyrrolo[2,1-c][1,4]benzodiazepine-3-carboxamide], for which the inhibition at 0.1 µM is 15%.
Then `COc1cc(C(=O)N2Cc3ccc(C(=O)N(C)C4CCN(C)CC4)n3Cc3ccccc32)ccc1-c1ccccc1C` [Example 179, 10-[(2-Methoxy-2′-methyl[1,1′-biphenyl]-4-yl)carbonyl]-N-methyl-N-(1-methyl-4-piperidinyl)-10,11-dihydro-5H-pyrrolo[2,1-c][1,4]benzodiazepine-3-carboxamide], with 23%; and `COc1cc(-c2ccccc2C)c(Cl)cc1C(=O)N1Cc2ccc(C(=O)N(C)C3CCN(C)CC3)n2Cc2ccccc21` [Example 180, 10-[(6-Chloro-3-methoxy-2′-methyl[1,1′-biphenyl]-4-yl)carbonyl]-N-methyl-N-(1-methyl-4-piperidinyl)-10,11-dihydro-5H-pyrrolo[2,1-c][1,4]benzodiazepine-3-carboxamide], with 14%.
